Experimental data from patent publication US5892026A, “High Trehalose content syrup” (Kabushiki Kaisha Hayashibara Seibutsu Kagaku Kenkyujo, priority 1995, dated 1999).
Values after ≈ are worked out from the molar mass of the structure shown. Read-outs that look alike come from different tables or passages of the source.

Experiment: Water solubility of trehalose at ambient temperature (Experiment 1)
Format: physicochemical
Details: for solubility thermodynamic at 24 h: water
Experimental: The water solubility of trehalose at ambient temperature was studied by placing into a glass beaker 10 parts by weight of water and 20 parts by weight of hydrous crystalline trehalose, incubating the mixture under stirring conditions at 10°, 15°, 20°, 25°, 30° or 40° C. for 24 hours in an incubator, filtering the resulting mixture, measuring the trehalose concentration of the filtrate, and determining the water solubility of trehalose in an anhydrous form in 100 g water at each temperature.

solubility thermodynamic at 24 h (10 °C, anhydrous form, read-out: trehalose content (g) dissolved in 100 g water): 553 mg/mL (≈ 1620 mM)
solubility thermodynamic at 24 h (15 °C, anhydrous form, read-out: trehalose content (g) dissolved in 100 g water): 618 mg/mL (≈ 1810 mM)
solubility thermodynamic at 24 h (20 °C, anhydrous form, read-out: trehalose content (g) dissolved in 100 g water): 689 mg/mL (≈ 2010 mM)
solubility thermodynamic at 24 h (25 °C, anhydrous form, read-out: trehalose content (g) dissolved in 100 g water): 773 mg/mL (≈ 2260 mM)
solubility thermodynamic at 24 h (30 °C, anhydrous form, read-out: trehalose content (g) dissolved in 100 g water): 866 mg/mL (≈ 2530 mM)
solubility thermodynamic at 24 h (40 °C, anhydrous form, read-out: trehalose content (g) dissolved in 100 g water): 1090 mg/mL (≈ 3190 mM)
solubility thermodynamic at 24 h (saturated in water, 10 °C, read-out: trehalose concentration (w/w %)): 356 mg/mL (≈ 1040 mM)
solubility thermodynamic at 24 h (saturated in water, 15 °C, read-out: trehalose concentration (w/w %)): 382 mg/mL (≈ 1120 mM)
solubility thermodynamic at 24 h (saturated in water, 20 °C, read-out: trehalose concentration (w/w %)): 408 mg/mL (≈ 1190 mM)
solubility thermodynamic at 24 h (saturated in water, 25 °C, read-out: trehalose concentration (w/w %)): 436 mg/mL (≈ 1270 mM)
solubility thermodynamic at 24 h (saturated in water, 30 °C, read-out: trehalose concentration (w/w %)): 464 mg/mL (≈ 1360 mM)
solubility thermodynamic at 24 h (saturated in water, 40 °C, read-out: trehalose concentration (w/w %)): 522 mg/mL (≈ 1520 mM)
SMILES: OC[C@H]1O[C@H](O[C@H]2O[C@H](CO)[C@@H](O)[C@H](O)[C@H]2O)[C@H](O)[C@@H](O)[C@@H]1O [Trehalose, α,α-trehalose]
water solubility / crystallization of trehalose (in words) (ambient temperature): dissolves in water in a relatively low concentration and readily crystallizes at ambient temperature
